Measurements from ChEMBL document CHEMBL1201862, “PubChem BioAssay data set” (2004).
“And” between values parts separate entries of the source, which are not always exact repeats. Equal values may be shown once. Values belong to the compound of their own block, whether it stands above or below them. The source made the active and inactive calls.

What was measured:
[1] = biological target: Serine/threonine-protein kinase MRCK alpha (Homo sapiens, UniProt Q5VT25); assay type: functional
[2] = biological target: STE20-like serine/threonine-protein kinase (Homo sapiens, UniProt Q9H2G2); assay type: functional
[3] = biological target: Dual specificity protein kinase CLK2 (Homo sapiens, UniProt P49760); assay type: functional
[4] = biological target: Serine/threonine-protein kinase Nek2 (Homo sapiens, UniProt P51955); assay type: functional
[5] = biological target: Tyrosine-protein kinase Srms (Homo sapiens, UniProt Q9H3Y6); assay type: functional;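 note: SRMS measured as one member of a kinome-wide kinase profiling panel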
[6] = biological target: Interleukin-1 receptor-associated kinase 1 (Homo sapiens, UniProt P51617); assay type: functional;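 note: IRAK1 tested as one member of a kinome panel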
[7] = biological target: Casein kinase I isoform alpha (Homo sapiens, UniProt P48729); assay type: functional
[8] = biological target: Dual specificity protein kinase CLK4 (Homo sapiens, UniProt Q9HAZ1); assay type: functional
[9] = biological target: Casein kinase II subunit alpha (Homo sapiens, UniProt P68400); assay type: functional
[10] = biological target: Serine/threonine-protein kinase 17A (Homo sapiens, UniProt Q9UEE5); assay type: functional
[11] = biological target: Dual specificity tyrosine-phosphorylation-regulated kinase 4 (Homo sapiens, UniProt Q9NR20); assay type: functional
[12] = biological target: Tyrosine-protein kinase JAK2 (Homo sapiens, UniProt O60674); assay type: functional;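 note: JAK2 tested as one member of a kinase panel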
[13] = biological target: Homeodomain-interacting protein kinase 4 (Homo sapiens, UniProt Q8NE63); assay type: functional
[14] = biological target: Ribosomal protein S6 kinase beta-1 (Homo sapiens, UniProt P23443); assay type: functional;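 note: measured as one member of a kinome-wide profiling panel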
[15] = biological target: Megakaryocyte-associated tyrosine-protein kinase (Homo sapiens, UniProt P42679); assay type: functional;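 note: affinity measured as one member of a kinase panel (Navigating the Kinome) against MATK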
[16] = biological target: Tyrosine-protein kinase ABL1 (Homo sapiens, UniProt P00519); assay type: functional
[17] = biological target: Ribosomal protein S6 kinase alpha-5 (Homo sapiens, UniProt O75582); assay type: functional
[18] = biological target: Protein kinase C iota type (Homo sapiens, UniProt P41743); assay type: functional;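 note: measured within a kinome-wide kinase panel, PRKCI as panel member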
[19] = biological target: Serine/threonine-protein kinase D3 (Homo sapiens, UniProt O94806); assay type: functional;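 note: determined within a kinase panel screen, with PRKCN as the panel member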
[20] = biological target: Cyclin-dependent kinase 2 (Homo sapiens, UniProt P24941); assay type: functional;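 note: CDK2 measured as one member of a broad kinome profiling panel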
[21] = biological target: T1, Mannose-6-phosphate isomerase (Homo sapiens, UniProt P34949); test: MPI enzyme activity inhibition – biochemical, fluorescence intensity, coupled assay, primary screen (AID 1209)
T1 sequence (P34949 whole entry): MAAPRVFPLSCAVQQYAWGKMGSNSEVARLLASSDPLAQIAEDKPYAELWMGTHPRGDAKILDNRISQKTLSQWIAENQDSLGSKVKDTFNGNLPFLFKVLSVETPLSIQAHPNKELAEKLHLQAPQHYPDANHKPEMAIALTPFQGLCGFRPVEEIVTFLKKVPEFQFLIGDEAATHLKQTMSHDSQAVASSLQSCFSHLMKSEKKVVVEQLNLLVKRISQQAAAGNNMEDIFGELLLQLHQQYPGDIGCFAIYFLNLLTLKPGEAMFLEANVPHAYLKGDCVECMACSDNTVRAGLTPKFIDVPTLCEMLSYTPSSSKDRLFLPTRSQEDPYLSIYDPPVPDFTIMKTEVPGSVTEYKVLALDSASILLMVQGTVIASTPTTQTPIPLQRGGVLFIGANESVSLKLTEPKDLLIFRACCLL

Aspartyl aminopeptidase = biological target: T2, Aspartyl aminopeptidase (Plasmodium falciparum 3D7, UniProt Q8I2J3)
T2 sequence (Q8I2J3 whole entry): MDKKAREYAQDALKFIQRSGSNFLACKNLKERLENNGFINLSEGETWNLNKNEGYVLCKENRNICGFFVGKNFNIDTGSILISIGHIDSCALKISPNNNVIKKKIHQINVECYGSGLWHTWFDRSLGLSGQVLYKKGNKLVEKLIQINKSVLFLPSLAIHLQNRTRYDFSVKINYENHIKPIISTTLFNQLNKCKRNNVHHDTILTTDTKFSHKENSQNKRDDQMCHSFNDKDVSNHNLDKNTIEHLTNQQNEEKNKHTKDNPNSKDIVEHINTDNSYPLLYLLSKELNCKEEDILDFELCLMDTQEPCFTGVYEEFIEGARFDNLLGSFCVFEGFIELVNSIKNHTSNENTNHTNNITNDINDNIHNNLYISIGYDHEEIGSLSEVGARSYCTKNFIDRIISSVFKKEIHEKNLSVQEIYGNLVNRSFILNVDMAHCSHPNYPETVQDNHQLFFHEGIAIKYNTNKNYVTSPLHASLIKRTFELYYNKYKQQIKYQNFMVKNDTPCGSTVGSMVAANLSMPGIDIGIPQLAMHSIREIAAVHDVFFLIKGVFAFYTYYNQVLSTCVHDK

[22] = biological target: Phosphoethanolamine/phosphocholine phosphatase (Homo sapiens, UniProt Q8TCT1); test: SAR assay for compounds that inhibit PHOSPHO1. [Related pubchem assays (depositor defined):AID1545, AID1565, AID1574]
HEK293 [23] = test: EBV LMP1 TES2 canonical NF-kB signalling blockers – cell-based, HEK293, luciferase, cherry-pick, dose response (AID 588343); assay type: functional; conditions: Homo sapiens
Large T antigen = Large T antigen (Simian virus 40, UniProt P03070); assay type: functional, Betapolyomavirus macacae;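 note: Confirmatory-stage PubChem screen for compounds that inhibit SV40 T antigen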
[24] = biological target: ATP-dependent molecular chaperone HSP82 (Candida albicans (strain WO-1) (Yeast), UniProt C4YTQ8); test: steroid-induced GRE reporter decrease in yeast – S. cerevisiae, luminescence, Hsp90 inhibitor project, dose response (AID 2400); assay type: functional, cell-based;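 note: beta-galactosidase luminescence from glucocorticoid response element reporter as proxy for Hsp90 function; inhibitor potency where signal loss means Hsp90 inhibition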
Jurkat = test: SAR Analysis of small molecule inhibitors of T-cell specific antigen receptor-induced NF-kB activation in a Jurkat cell line using a luminescence assay. [Related pubchem assays (depositor defined):AID435003, AID435012, AID465]; assay type: functional, cell-based; conditions: Homo sapiens
HEK293 [25] = test: SAR Analysis of small molecule inhibitors of T-cell specific antigen receptor-induced NF-kB activation in a HEK-293T cell line using a luminescence assay. [Related pubchem assays (depositor defined):AID435003, AID435012, AID489026]; assay type: functional, cell-based; conditions: Homo sapiens

Phosphoethanolamine/phosphocholine phosphatase, sequence (Q8TCT1 whole entry): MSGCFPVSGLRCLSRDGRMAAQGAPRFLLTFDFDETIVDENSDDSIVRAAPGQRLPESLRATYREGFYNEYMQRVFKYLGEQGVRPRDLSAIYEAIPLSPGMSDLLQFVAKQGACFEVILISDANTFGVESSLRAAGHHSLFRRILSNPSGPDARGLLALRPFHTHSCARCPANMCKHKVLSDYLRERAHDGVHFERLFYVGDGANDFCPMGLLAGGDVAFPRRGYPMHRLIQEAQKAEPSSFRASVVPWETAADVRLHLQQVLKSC
Tyrosine-protein kinase Srms, sequence (Q9H3Y6 whole entry): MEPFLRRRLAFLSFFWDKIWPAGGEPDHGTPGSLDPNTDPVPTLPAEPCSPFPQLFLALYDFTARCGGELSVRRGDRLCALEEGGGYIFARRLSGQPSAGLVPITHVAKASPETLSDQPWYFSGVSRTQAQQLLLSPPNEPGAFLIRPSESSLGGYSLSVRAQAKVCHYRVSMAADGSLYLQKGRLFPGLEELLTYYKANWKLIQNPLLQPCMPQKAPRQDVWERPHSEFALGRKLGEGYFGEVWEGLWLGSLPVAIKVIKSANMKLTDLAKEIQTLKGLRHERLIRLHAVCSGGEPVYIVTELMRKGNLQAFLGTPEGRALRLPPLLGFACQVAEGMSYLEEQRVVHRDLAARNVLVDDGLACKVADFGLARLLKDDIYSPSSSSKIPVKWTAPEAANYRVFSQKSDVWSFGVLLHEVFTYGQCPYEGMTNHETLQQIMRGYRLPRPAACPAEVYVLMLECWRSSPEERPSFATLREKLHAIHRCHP
Serine/threonine-protein kinase 17A, sequence (Q9UEE5 whole entry): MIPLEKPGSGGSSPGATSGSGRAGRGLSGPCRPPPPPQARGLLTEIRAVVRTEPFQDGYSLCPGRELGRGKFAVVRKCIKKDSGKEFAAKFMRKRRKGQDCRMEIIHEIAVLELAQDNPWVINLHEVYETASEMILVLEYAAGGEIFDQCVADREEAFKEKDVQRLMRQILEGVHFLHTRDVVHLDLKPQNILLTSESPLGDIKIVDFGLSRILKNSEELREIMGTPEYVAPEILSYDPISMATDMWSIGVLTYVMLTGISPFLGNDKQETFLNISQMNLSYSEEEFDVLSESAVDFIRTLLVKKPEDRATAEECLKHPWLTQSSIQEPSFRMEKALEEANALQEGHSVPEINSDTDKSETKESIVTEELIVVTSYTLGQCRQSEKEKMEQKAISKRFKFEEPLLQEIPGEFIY
Homeodomain-interacting protein kinase 4, sequence (Q8NE63 whole entry): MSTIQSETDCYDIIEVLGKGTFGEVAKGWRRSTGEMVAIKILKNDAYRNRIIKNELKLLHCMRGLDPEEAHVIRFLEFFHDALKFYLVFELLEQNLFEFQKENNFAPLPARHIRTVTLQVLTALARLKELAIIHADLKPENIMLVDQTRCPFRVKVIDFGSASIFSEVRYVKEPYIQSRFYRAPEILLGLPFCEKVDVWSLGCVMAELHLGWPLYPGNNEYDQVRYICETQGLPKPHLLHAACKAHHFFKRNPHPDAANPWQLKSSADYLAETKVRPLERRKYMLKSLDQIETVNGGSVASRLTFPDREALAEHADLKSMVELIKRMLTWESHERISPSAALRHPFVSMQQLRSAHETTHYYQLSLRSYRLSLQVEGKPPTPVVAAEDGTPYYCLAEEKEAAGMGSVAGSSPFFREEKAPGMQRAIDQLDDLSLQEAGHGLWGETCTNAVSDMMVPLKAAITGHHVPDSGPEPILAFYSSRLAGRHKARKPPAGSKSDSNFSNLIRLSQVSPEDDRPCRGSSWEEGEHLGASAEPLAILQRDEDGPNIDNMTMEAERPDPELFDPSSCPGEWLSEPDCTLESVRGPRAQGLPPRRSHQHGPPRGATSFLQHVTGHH
ATP-dependent molecular chaperone HSP82, sequence (C4YTQ8 whole entry): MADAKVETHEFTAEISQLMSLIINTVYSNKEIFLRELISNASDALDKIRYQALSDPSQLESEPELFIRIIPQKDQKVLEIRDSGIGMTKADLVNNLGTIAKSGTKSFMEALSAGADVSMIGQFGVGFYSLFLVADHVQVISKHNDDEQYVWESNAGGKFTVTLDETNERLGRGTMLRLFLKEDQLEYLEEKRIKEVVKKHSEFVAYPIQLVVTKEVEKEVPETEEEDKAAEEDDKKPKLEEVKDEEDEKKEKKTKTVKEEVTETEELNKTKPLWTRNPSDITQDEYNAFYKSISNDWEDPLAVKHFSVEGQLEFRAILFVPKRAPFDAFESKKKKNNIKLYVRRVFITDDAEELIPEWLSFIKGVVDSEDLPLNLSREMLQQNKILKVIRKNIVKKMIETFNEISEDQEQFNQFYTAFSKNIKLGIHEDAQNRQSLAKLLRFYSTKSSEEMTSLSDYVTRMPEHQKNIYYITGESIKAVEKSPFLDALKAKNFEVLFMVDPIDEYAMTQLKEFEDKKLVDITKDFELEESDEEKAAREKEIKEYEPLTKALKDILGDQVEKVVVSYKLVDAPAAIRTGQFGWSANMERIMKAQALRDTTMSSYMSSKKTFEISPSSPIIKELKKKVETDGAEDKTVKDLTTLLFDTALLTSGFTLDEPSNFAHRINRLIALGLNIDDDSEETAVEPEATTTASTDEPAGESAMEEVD
Casein kinase I isoform alpha, sequence (P48729 whole entry, canonical isoform): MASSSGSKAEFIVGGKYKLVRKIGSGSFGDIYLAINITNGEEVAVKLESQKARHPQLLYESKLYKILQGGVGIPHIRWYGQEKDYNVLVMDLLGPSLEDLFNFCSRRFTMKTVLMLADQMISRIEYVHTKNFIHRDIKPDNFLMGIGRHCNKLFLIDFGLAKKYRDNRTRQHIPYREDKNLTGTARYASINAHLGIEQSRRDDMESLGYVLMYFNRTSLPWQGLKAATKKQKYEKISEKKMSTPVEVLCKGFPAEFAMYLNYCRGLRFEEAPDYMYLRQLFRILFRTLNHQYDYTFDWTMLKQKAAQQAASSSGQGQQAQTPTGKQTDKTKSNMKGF
Casein kinase II subunit alpha, sequence (P68400 whole entry): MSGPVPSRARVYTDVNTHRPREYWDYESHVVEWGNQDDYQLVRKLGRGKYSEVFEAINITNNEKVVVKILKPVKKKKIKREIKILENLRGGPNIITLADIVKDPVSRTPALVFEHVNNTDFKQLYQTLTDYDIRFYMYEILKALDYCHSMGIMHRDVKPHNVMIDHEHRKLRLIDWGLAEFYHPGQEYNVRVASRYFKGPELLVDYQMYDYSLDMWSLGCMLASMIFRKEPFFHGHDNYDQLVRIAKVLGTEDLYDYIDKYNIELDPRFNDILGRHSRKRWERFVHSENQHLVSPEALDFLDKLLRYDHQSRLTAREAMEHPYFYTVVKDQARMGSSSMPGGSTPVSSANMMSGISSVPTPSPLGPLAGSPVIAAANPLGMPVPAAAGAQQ
STE20-like serine/threonine-protein kinase, sequence (Q9H2G2 whole entry): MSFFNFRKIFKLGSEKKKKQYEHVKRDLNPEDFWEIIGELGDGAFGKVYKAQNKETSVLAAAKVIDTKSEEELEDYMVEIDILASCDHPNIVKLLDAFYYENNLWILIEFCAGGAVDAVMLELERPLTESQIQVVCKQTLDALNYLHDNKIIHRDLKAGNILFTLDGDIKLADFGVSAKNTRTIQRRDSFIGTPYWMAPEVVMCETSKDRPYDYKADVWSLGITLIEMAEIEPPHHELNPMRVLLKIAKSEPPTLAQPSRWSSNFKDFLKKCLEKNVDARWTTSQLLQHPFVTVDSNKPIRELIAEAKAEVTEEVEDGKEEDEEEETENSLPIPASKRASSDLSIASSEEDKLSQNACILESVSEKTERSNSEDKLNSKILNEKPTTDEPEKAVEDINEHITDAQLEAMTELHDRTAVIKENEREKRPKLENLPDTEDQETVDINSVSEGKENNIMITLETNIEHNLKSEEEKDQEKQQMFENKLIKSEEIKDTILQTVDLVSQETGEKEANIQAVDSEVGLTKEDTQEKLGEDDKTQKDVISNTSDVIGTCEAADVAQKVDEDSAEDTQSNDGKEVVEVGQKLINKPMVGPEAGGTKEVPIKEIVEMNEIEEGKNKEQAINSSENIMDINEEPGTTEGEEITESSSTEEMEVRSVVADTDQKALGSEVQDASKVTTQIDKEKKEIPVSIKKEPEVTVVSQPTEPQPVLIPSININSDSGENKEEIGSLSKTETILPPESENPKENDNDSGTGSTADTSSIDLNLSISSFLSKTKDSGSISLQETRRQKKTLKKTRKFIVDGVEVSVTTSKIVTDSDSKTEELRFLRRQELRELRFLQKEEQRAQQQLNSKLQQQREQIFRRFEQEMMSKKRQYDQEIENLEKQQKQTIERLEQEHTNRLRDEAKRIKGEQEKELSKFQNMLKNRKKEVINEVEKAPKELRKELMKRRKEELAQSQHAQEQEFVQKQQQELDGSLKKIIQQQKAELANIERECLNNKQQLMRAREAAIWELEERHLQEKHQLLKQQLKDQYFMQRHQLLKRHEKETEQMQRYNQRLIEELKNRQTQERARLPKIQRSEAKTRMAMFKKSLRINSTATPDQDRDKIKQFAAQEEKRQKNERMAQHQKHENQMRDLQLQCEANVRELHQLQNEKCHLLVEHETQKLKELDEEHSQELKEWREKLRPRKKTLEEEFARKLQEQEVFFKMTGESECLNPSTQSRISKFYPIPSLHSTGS
Dual specificity tyrosine-phosphorylation-regulated kinase 4, sequence (Q9NR20 whole entry): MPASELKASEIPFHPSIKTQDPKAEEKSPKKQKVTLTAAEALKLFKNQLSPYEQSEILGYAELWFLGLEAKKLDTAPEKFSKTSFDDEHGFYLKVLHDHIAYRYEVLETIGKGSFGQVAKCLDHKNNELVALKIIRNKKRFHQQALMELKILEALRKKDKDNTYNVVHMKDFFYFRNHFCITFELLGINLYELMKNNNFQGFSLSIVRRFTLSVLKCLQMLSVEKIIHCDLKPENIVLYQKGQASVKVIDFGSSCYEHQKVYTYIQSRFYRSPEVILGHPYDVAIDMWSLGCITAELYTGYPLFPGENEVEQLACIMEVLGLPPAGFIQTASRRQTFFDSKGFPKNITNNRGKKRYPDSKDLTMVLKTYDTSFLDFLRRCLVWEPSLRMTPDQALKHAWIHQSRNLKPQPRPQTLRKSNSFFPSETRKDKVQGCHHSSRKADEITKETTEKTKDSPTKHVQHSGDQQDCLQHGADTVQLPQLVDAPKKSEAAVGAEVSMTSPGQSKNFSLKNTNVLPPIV

- Ki [1]: > 10 µM (inactive)
- Ki [2]: 0.0631 µM (active)
- Ki [3]: 1 µM (active)
- Ki [4]: > 10 µM (inactive)
- Ki [5]: > 1.58 µM (inactive)
- Ki [6]: > 7.94 µM (inactive)
- Ki [7]: > 6.31 µM (inactive)
- Ki [8]: 0.126 µM (active)
- Ki [9]: > 6.31 µM (inactive)
- Ki [10]: > 3.98 µM (inactive)
- Ki [11]: 6.31 µM (active)
- Ki [12]: > 1.58 µM (inactive)
- Ki [13]: 0.0794 µM (active)
- Ki [14]: 0.0398 µM (active)
- Ki [15]: > 2 µM (inactive)
- Ki [16]: > 0.631 µM (inactive)
- Ki [17]: > 2 µM (inactive)
- Ki [18]: > 5.01 µM (inactive)
- Ki [19]: 2.51 µM (active)
- Ki [20]: > 7.94 µM (inactive)
Compound: Cc1cccc(NC(=O)Nc2ccc3c(c2)CCc2sc4ncnc(N)c4c2-3)c1

Compound: Cc1ccc(-n2sc3ccccc3c2=O)cc1
- IC50 [21]: 6.78 µM (active)
- IC50 (Aspartyl aminopeptidase): 1.25 µM (active)
- IC50 [22]: 2.28 µM (inactive) and 1.46 µM (inactive)

Compound: CCC(=O)NC(c1ccc(C)cc1)c1ccc2cccnc2c1O (stereo not drawn)
- AC50 (HEK293 [23]): 4.51 µM (active)

Compound: N/C(=N\N=C/c1ccc(-c2ccc(O)c(C(=O)O)c2)o1)N[N+](=O)[O-]
- IC50 (Large T antigen): 25.4 µM (active)

Compound: CCCC(=O)NC(c1ccc(Cl)cc1)c1ccc2cccnc2c1O (stereo not drawn)
- EC50 [24]: > 160 µM (inactive)
- IC50 (Jurkat): 4.13 µM (active)
- IC50 (HEK293 [25]): 3.72 µM (active)
